The record followed here is US11384066B1, “Heterocyclic compounds useful as aurora a selective inhibitors” (Jacobio Pharmaceuticals Co., Ltd., priority 2020, dated 2022).

One data set addresses Aurora A (Homo sapiens (Human), UniProt O14965). Nature of the data set: Aurora A kinase assay (mobility shift assay). Format: biochemical. The procedure: (§1) Example A: Evaluation of Aurora a and Aurora B Inhibitory Effect—Kinase Assay
(§2) The inhibitory activities of a test compound against Aurora A and Aurora B were measured according to the following method.
(§3) The IC50 value of Aurora A and Aurora B kinase was performed by Sundia MediTech Co. Ltd. using Mobility shift assay.
(§4) • (1) Prepare a 1× kinase buffer [50 mM 4-(2-hydroxyethyl)-1-piperazineethanesulfonic acid (HEPES), PH 7.5, 0.01% Brij-35, 10 mM MgCl2, 2 mM dithiothreitol (DTT)]. • (2) Prepare compound:
(§5) The testing compound was dissolved with DMSO. The testing compound was diluted up to 100× final concentration in a 384-well plate. Transfer 250 nL of the compound dilution to a 384-well assay plate using Echo 550. 100% DMSO of 250 nL was added to the negative control well and the positive control well. • (3) Prepare a 2.5× enzyme solution using the above 1× kinase buffer. • (4) Add 10 μL of the 2.5× enzyme solution to the compound well and the positive control well of the 384-well assay plate. Add 10 μL of the 1× kinase buffer to the negative control well. • (5) The 384-well plate was centrifuged at 1000 rpm for 30 seconds and incubated at room temperature for 10 min. • (6) A mixture of ATP and Kinase substrate 21 with a final concentration of 25/15× was prepared by the 1× kinase buffer. • (7) Add 15 μL of the mixture of 25/15×ATP and kinase substrate solution 21 to start reaction. • (8) The 384-well plate was centrifuged at 1000 rpm for 30 seconds and incubated at room temperature. • (9) 30 μL of the stop and detection buffer was added to stop the kinase reaction and centrifuged at 1000 rpm for 30 seconds. • (10) Collect data on Caliper EZ ReaderII. Data Analysis:
(§6) Conversion %_sample is conversion rate data of samples. Conversion %_min is mean value of negative control (conversion rate data without enzyme activation). Conversion %_max is mean positive control (conversion rate data without compound).
(§7) The log of concentration is on the X axis, and the percentage inhibition is on the Y axis. Fit the Quantitative effect curves with log (inhibitor) vs. response—Variable slope in GraphPad Prism5 obtain IC50 values. Equation used is Y=Bottom+(Top−Bottom)/(1+10^((Log IC50−X)*HillSlope)).

For another data set, the target named is Aurora B (Homo sapiens (Human), UniProt Q96GD4). Nature of the data set: Aurora B kinase assay (mobility shift assay). Format: biochemical. Particulars: ratio of Aurora B IC50 to Aurora A IC50. The procedure:
as §1, §2, §3, §4, §5, §6, §7

A further data set concerns NCI-H2171 cells. Briefly: Cell proliferation assay (CellTiter-Glo), NCI-H2171. Format: cell-based. Particulars: Homo sapiens, NCI-H2171, 120 h, 5 days. The procedure: (§8) Example B: Cell Proliferation Assay
(§9) NCI-H2171 and NCI-H446 cell proliferation analysis were conducted by CellTiter-Glo (Promega, Cat #G1111). The cells will be harvested respectively during the logarithmic growth period and counted with hemocytometer. […] Adjust NCI-H2171 and NCI-H446 cells concentrations to 1.0×10^5 cells/mL with complete medium (RPMI-1640 medium supplemented with 10% (v/v) fetal bovine serum). 100 μL/cell suspensions were added to 96-well plates, and the final cell densities were 1.0×10^4 cells/well. The plate will be cultured overnight in 5% CO2 and 95% humidity at 37° C. The next day, the test compound was dissolved in DMSO as stock solution. Then the different concentrations of compound were added into 96-well plates. The plates will be cultured for 5 days, then measured by means of CellTiter-Glo assay. 50 μL/cell CellTiter-Glo reagent was added into 96-well plates. Shock incubation for 5 min and then stand incubation for 10 min at room temperature. Record the Luminosity values using an microplate spectrophotometer (Spark, Tecan). Fit the data using GraphPad 8.0 and obtain IC50 values.
(§10) Formula: Survival (%)=(Lumtest−Lummedia control)/(Lumcell control−Lummedia control)×100%

A further data set has as its system NCI-H446 cells. Briefly: Cell proliferation assay (CellTiter-Glo), NCI-H446. Format: cell-based. Particulars: Homo sapiens, NCI-H446, 120 h, 5 days. How it is done: as §8, §9, §10
A further data set is described as follows: PK in rat. Format: in vivo. Particulars: SD male rats. The procedure: The compounds were dissolved into 10% DMSO, 30% PEG400, and 60% saline to obtain a solution. SD male rats were given the compound orally and intravenously. Then plasma samples were collected at 0 hour (pre-dose), 0.25, 0.5, 1, 2, 4, 7, 24 hours post-dose. Plasma drug concentration was detected by LC-MS/MS. Pharmacokinetic parameters were calculated using WinNonlin's software with non-compartmental model.

Each structure is given as a SMILES string.

Sequence of Aurora B (Q96GD4 whole entry): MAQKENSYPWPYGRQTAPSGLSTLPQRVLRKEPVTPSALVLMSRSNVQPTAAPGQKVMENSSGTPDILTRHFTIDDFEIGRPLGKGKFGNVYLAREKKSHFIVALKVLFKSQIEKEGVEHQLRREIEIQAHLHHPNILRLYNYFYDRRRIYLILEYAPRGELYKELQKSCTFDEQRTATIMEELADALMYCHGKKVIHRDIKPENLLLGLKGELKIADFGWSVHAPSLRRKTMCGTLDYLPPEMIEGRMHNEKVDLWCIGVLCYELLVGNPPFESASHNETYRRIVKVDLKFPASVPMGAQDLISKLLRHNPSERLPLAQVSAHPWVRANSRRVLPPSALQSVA
Sequence of Aurora A (O14965 whole entry): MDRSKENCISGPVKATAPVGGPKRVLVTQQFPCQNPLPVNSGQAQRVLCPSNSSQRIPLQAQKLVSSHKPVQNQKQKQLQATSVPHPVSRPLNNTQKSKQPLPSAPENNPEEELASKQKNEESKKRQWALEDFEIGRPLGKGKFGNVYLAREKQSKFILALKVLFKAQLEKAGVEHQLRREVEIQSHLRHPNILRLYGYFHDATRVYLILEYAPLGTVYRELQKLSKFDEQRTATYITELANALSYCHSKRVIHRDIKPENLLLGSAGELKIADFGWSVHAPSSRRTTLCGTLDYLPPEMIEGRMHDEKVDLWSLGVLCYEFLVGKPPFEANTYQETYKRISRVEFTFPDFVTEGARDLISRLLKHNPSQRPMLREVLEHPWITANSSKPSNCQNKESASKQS

Consider `CC[C@@H]1C[C@](Cc2nc(Nc3cc(C)[nH]n3)ccc2F)(C(=O)O)CCN1Cc1cccc(Cl)c1F` [Example 8, (2R,4R)-1-(3-chloro-2-fluorobenzyl)-2-ethyl-4-((3-fluoro-6-((5-methyl-1H-pyrazol-3-yl)amino)pyridin-2-yl)methyl) piperidine-4-carboxylic acid], for which the half-maximal inhibitory concentration (IC50) at Aurora A was determined as 1.2 nM; in the data set on NCI-H2171 cells it was 75 nM; with NCI-H446 cells, 119 nM. In addition, on Aurora B, the “IC50 Ratio Aur B/Aur A” value came to 1288.

`Cc1cc(Nc2cc(F)cc(C[C@@]3(C(=O)O)CCN(Cc4cccc(Cl)c4F)[C@H](C)C3)n2)n[nH]1` [Example 30, (2R,4R)-1-(3-chloro-2-fluorobenzyl)-4-((4-fluoro-6-((5-methyl-1H-pyrazol-3-yl)amino)pyridin-2-yl)methyl)-2-methylpiperidine-4-carboxylic acid]: the half-maximal inhibitory concentration (IC50) in the data set on NCI-H2171 cells is 62 nM; with NCI-H446 cells, 128 nM.

For `Cc1cc(Nc2cc(C)c(F)c(CC3(C(=O)O)CCN(Cc4cccc(F)c4F)CC3)n2)n[nH]1` [Example 52], the half-inhibitory concentration (IC50) at Aurora A was found to be 1.3 nM. Also, the “IC50 Ratio Aur B/Aur A” value on Aurora B was found to be 1285.

`Cc1cc(Nc2cc(C)c(F)c(C[C@@]3(C(=O)O)CCN(Cc4cccc(Cl)c4Cl)[C@H](C)C3)n2)n[nH]1` [Example 53, (2R,4R)-1-(2,3-dichloro-benzyl)-4-((3-fluoro-4-methyl-6-((5-methyl-1H-pyrazol-3-yl)-amino)pyridin-2-yl)methyl)-2-methylpiperidine-4-carboxylic acid]: the results for the IC50 on Aurora A, with NCI-H2171 cells and with NCI-H446 cells were 0.55 nM, 57 nM and 154 nM, respectively. Also, the “IC50 Ratio Aur B/Aur A” value at Aurora B worked out at 562.

Take `Cc1cc(Nc2cc(C)c(F)c(CC3(C(=O)O)CCN(Cc4cccc(Cl)c4Cl)CC3)n2)n[nH]1` [Example 54]: the IC50 at Aurora A worked out at 0.43 nM. For the same molecule, the “IC50 Ratio Aur B/Aur A” value on Aurora B turned out to be 2041.

With `Cc1cc(Nc2cc(C)c(F)c(CC3(C(=O)O)CCN(Cc4c(F)ccc(Cl)c4F)CC3)n2)n[nH]1` [Example 55, 1-(3-chloro-2,6-difluoro-benzyl)-4-((3-fluoro-4-methyl-6-((5-methyl-1H-pyrazol-3-yl)-amino)pyridin-2-yl)methyl) piperidine-4-carboxylic acid], the IC50 at Aurora A was found to be 0.88 nM. For the same molecule, the “IC50 Ratio Aur B/Aur A” value on Aurora B is given as 3835.

In the case of `CCc1cc(Nc2cc(C)[nH]n2)nc(CC2(C(=O)O)CCN(Cc3cccc(Cl)c3F)CC2)c1F` [Example 66, 1-(3-chloro-2-fluorobenzyl)-4-((4-ethyl-3-fluoro-6-((5-methyl-1H-pyrazol-3-yl)amino)-pyridin-2-yl)methyl)piperidine-4-carboxylic acid], at Aurora A, the IC50 was 0.57 nM. At Aurora B, the “IC50 Ratio Aur B/Aur A” value is recorded as 716.

For `Cc1cc(Nc2cc(C#N)c(F)c(C[C@@]3(C(=O)O)CCN(Cc4cccc(Cl)c4F)[C@H](C)C3)n2)[nH]n1` [Example 67, (2R,4R)-1-(3-chloro-2-fluorobenzyl)-4-((4-cyano-3-fluoro-6-((3-methyl-1H-pyrazol-5-yl)amino)pyridin-2-yl)methyl)-2-methylpiperidine-4-carboxylic acid], the IC50 at Aurora A is 1.6 nM. Further, at Aurora B, the “IC50 Ratio Aur B/Aur A” value came out at 759.

Regarding `CC(=O)c1cc(Nc2cc(C)[nH]n2)nc(CC2(C(=O)O)CCN(Cc3cccc(Cl)c3F)CC2)c1F` [Example 69, 4-((4-acetyl-3-fluoro-6-((5-methyl-1H-pyrazol-3-yl)-amino)pyridin-2-yl)methyl)-1-(3-chloro-2-fluorobenzyl)-piperidine-4-carboxylic acid], the figures for the IC50 in the data set with NCI-H2171 cells and in the data set on NCI-H446 cells were 41 nM and 87 nM, respectively.

As to `Cc1cc(Nc2nc(C[C@@]3(C(=O)O)CCN(Cc4cccc(Cl)c4F)[C@H](C)C3)c(F)c(Cl)c2F)n[nH]1` [Example 74], the IC50 on Aurora A is 0.67 nM. For the same molecule, the “IC50 Ratio Aur B/Aur A” value at Aurora B was found to be 3358.

`Cc1cc(Nc2nc(CC3(C(=O)O)CCN(Cc4cccc(Cl)c4F)CC3)cc(C)c2F)n[nH]1` [Example 79, 1-(3-chloro-2-fluorobenzyl)-4-((5-fluoro-4-methyl-6-((5-methyl-1H-pyrazol-3-yl)amino)-pyridin-2-yl)methyl)piper-idine-4-carboxylic acid]: at Aurora A, the IC50 came to 0.61 nM. Besides, the “IC50 Ratio Aur B/Aur A” value at Aurora B worked out at 2036.

Regarding `Cc1cc(Nc2cc(S(C)(=O)=O)c(F)c(C[C@@]3(C(=O)O)CCN(Cc4cccc(Cl)c4F)[C@H](C)C3)n2)n[nH]1` [Example 81, (2R,4R)-1-(3-chloro-2-fluorobenzyl)-4-((3-fluoro-6-((5-methyl-1H-pyrazol-3-yl)amino)-4-(methylsulfonyl)pyridin-2-yl)methyl)-2-methylpiperidine-4-carboxylic acid], the concentration for half-maximal inhibition (IC50) at Aurora A worked out at 0.77 nM. Besides, at Aurora B, the “IC50 Ratio Aur B/Aur A” value turned out to be 1353.

For `Cc1cc(Nc2nc(C[C@@]3(C(=O)O)CCN(Cc4cccc(Cl)c4F)[C@H](C)C3)c(F)c(Cl)c2Cl)n[nH]1` [Example 84, (2R,4R)-1-(3-chloro-2-fluorobenzyl)-4-((4,5-dichloro-3-fluoro-6-((5-methyl-1H-pyrazol-3-yl)amino)pyridin-2-yl)methyl)-2-methylpiperidine-4-carboxylic acid], the IC50 at Aurora A was 1.4 nM. Further, at Aurora B, the “IC50 Ratio Aur B/Aur A” value is 4026.

Turning to `Cc1cc(Nc2nc(C[C@@]3(C(=O)O)CCN(Cc4cccc(Cl)c4F)[C@H](C)C3)cc(C#N)c2F)n[nH]1` [Example 90, (2R,4R)-1-(3-chloro-2-fluorobenzyl)-4-((4-cyano-5-fluoro-6-((5-methyl-1H-pyrazol-3-yl)amino)pyridin-2-yl)methyl)-2-methylpiperidine-4-carboxylic acid], at Aurora A, the IC50 amounted to 0.54 nM. Also, on Aurora B, the “IC50 Ratio Aur B/Aur A” value worked out at 1479.

With `Cc1cc(Nc2nc(C[C@@]3(C(=O)O)CCN(Cc4cccc(Cl)c4F)[C@H](C)C3)c(F)cc2F)n[nH]1` [Example 91, (2R,4R)-1-(3-chloro-2-fluorobenzyl)-4-((3,5-difluoro-6-((5-methyl-1H-pyrazol-3-yl)amino)pyridin-2-yl)methyl)-2-methylpiperidine-4-carboxylic acid], the IC50 on Aurora A is 1.1 nM. Further, the “IC50 Ratio Aur B/Aur A” value at Aurora B turned out to be 451.

For `Cc1cc(Nc2nc(CC3(C(=O)O)CCN(Cc4cccc(Cl)c4F)CC3)c(F)cc2F)n[nH]1` [Example 92], on Aurora A, the IC50 is 0.74 nM. For the same molecule, on Aurora B, the “IC50 Ratio Aur B/Aur A” value is given as 4393.

For the molecule `Cc1[nH]nc(Nc2ccc(F)c(CC3(C(=O)O)CCN(Cc4cccc(Cl)c4F)C(C)C3)n2)c1C` (centres unmarked) [Example 102, 1-(3-chloro-2-fluorobenzyl)-4-((6-((4,5-dimethyl-1H-pyrazol-3-yl)-amino)-3-fluoropyridin-2-yl)-methyl)-2-methylpiperidine-4-carb-oxylic acid], on Aurora A, the IC50 stood at 0.93 nM. Besides, the “IC50 Ratio Aur B/Aur A” value on Aurora B is 804.

Consider `Cc1cc(Nc2ccc(F)c(C[C@@]3(C(=O)O)CCN(Cc4cccc(Cl)c4F)[C@H](C)C3)n2)n[nH]1` [LY3295668, reference compound], for which, in “PK in rat” (IV: 3 mg/kg), the “CL” value is 1.52 mL/min/kg and the “Vss” value is 0.29 L/kg. Further, in the data set “PK in rat” (PO: 10 mg/kg), the “AUClast” value was 91211 ng·h/mL, the “Cmax” value was determined as 15033 ng/mL and the “t1/2” value turned out to be 3.37 h. Moreover, the F% in the data set “PK in rat” (PO: 10 mg/kg vs IV: 3 mg/kg) came to 81%.
